Assay results from PubChem BioAssay (NCI).
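How tested: cells in 96-well plates exposed to compound for 48 hours at five concentrations. GI50 is the concentration that inhibits growth by half. TGI: total growth inhibition.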

Columns and labels:
Experiment in all cases: NCI tumour cell line growth inhibition, 48 h
SK-OV-3 ovarian = test system: SK-OV-3 ovarian
TK-10 renal = test system: TK-10 renal
CCRF-CEM leukemia = test system: CCRF-CEM leukemia
HCT-116 colon = test system: HCT-116 colon
SW-620 colon = test system: SW-620 colon
NCI-H460 lung = test system: NCI-H460 lung
U251 CNS = test system: U251 CNS
M14 melanoma = test system: M14 melanoma
MDA-MB-435 = test system: MDA-MB-435
MALME-3M melanoma = test system: MALME-3M melanoma

Compound | GI50 (SK-OV-3 ovarian) [µM] | TGI (SK-OV-3 ovarian) [µM] | GI50 (TK-10 renal) [µM] | TGI (TK-10 renal) [µM] | GI50 (CCRF-CEM leukemia) [µM] | TGI (CCRF-CEM leukemia) [µM] | GI50 (HCT-116 colon) [µM] | TGI (HCT-116 colon) [µM] | GI50 (SW-620 colon) [µM] | TGI (SW-620 colon) [µM] | GI50 (NCI-H460 lung) [µM] | TGI (NCI-H460 lung) [µM] | GI50 (U251 CNS) [µM] | TGI (U251 CNS) [µM] | GI50 (M14 melanoma) [µM] | TGI (M14 melanoma) [µM] | GI50 (MDA-MB-435) [µM] | TGI (MDA-MB-435) [µM] | TGI (MALME-3M melanoma) [µM] | GI50 (MALME-3M melanoma) [µM]
CCC1CCc2nc3sc(C(=O)Nc4cccc(F)c4)c(N)c3cc2C1 (stereo unspecified) | > 100 | > 100 | > 100 | > 100 | 1.79 | > 100 | 2.25 | > 100 | 0.707 | > 100 | > 100 | > 100 | > 100 | > 100 | 0.402 | > 100 | 0.11 | 0.616 |  | 
CC(=O)c1ccc(NC(=O)C(=O)Nn2c(=S)[nH]c3ccccc3c2=O)cc1 |  | > 100 |  | > 100 |  |  |  | > 100 |  | > 100 |  | > 100 |  | > 100 |  | > 100 |  |  | > 100 | 
O=[N+]([O-])c1cccc(-c2oc(C=Nc3ccccc3)c([N+](=O)[O-])c2-c2cccc([N+](=O)[O-])c2)c1 |  | > 100 |  | > 100 |  | > 100 |  | > 100 |  | > 100 |  | > 100 |  | > 100 |  | > 100 |  |  | > 100 | 
CCC1CN2CCc3c([nH]c4ccccc34)C2C[C@@H]1CC(=O)N(C)C (stereo partly specified) |  | > 100 |  | > 100 |  | > 100 |  | > 100 |  | > 100 |  | > 100 |  | > 100 |  | > 100 |  |  | > 100 | 
O=C1C2C3C=CC(C2C(=O)N1COP(=O)(O)O)C1C2C(=O)N(COP(=O)(O)O)C(=O)C2C31 (stereo unspecified) |  | > 100 |  | > 100 |  | > 60.7 |  | > 57.6 |  | > 65.2 |  | > 59.5 |  | > 100 |  | > 100 |  |  | > 100 | 
COC(=O)c1c(N)n[nH]c1N |  | > 100 |  | > 100 |  | > 100 |  | > 100 |  | > 100 |  | > 100 |  | > 100 |  | > 100 |  |  |  | 
O=C(Nc1nc2ncn(CCNCc3ccccc3)c2c(=O)[nH]1)c1ccccc1 |  | > 100 |  | > 100 |  | > 100 |  | > 100 |  | > 100 |  | > 100 |  | > 100 |  | > 100 |  |  | > 100 | 
Cc1ccc(S(=O)(=O)OCC23CCC(CC2)C2CC23)cc1 (stereo unspecified) |  | > 100 |  | > 100 |  | > 100 |  | > 100 |  | > 100 |  | > 100 |  | > 100 |  | > 100 |  |  | > 100 | 
COC1OC(COCc2ccc(Cl)cc2)C(OCc2ccc(Cl)cc2)C1N=[N+]=[N-] (stereo unspecified) |  | > 100 |  | > 100 |  |  |  | > 100 |  | > 100 |  | > 100 |  | > 100 |  | > 100 |  |  | > 100 | 
COc1cc(/C=C/C(=O)c2ccc(NC(=O)CN3CCN(c4cc5c(cc4F)c(=O)c(C(=O)O)cn5C4CC4)CC3)cc2)cc(OC)c1OC | 2.58 | > 29.8 | 1.8 | 12.9 |  |  | 0.324 | 1.31 | 0.485 |  | 0.497 |  | 0.373 | 1.47 | 1.15 | 13.6 | 0.433 |  | 14.5 | 2.32
O=[N+]([O-])c1cccc(C2ON2C2CCCCC2)c1 (stereo unspecified) |  | > 100 |  | 77 |  | 36.7 |  | 26.3 |  | 24.7 |  | 32.5 |  | 14 |  | 32.4 |  |  | 54.6 | 
